Experimental data reported in patent US5616615A, “Enaminone esters” (priority 1995, dated 1997).

system: Subcutaneous Pentylenetetrazol seizure; test: sc Met subcutaneous pentylenetetrazol (Metrazol) seizure test, mice; format: in vivo; details: Mus musculus, sc, 0.5 h, 100 mg/kg, 30 min, second trial; read-out: scMet, animals protected/tested (converted)

Row | Compound | responders at 100 mg/kg
1 | COC(=O)C1C(=O)C=C(Nc2ccc([N+](=O)[O-])cc2)CC1C (stereo not drawn) [Compound 29] | 0%

same assay, conditions: Mus musculus, sc, 0.5 h, 100 mg/kg, 30 min; read-out: scMet, animals protected/tested (converted)

Row | Compound | responders at 100 mg/kg
2 | COC(=O)C1C(=O)C=C(NCCc2ccccc2)CC1(C)C (stereo not drawn) [Compound 14] | 0%
3 | CC1(C)CC(=O)C=C(NCc2ccccc2)C1 [Compound 19] | 0%
4 | CCc1ccc(NC2=CC(=O)C(C(=O)OC)C(C)C2)cc1 (stereo not drawn) [Compound 26] | 0%
5 | COC(=O)C1C(=O)C=C(Nc2ccc([N+](=O)[O-])cc2)CC1C (stereo not drawn) [Compound 29] | 100%
6 | COC(=O)C1C(=O)C=C(Nc2cc(OC)ccc2OC)CC1C (stereo not drawn) [Compound 31, methyl 4-(2', 5'-dimethoxy)-phenylamino-6-methyl-2-oxo-cyclohex-3-en-1-oate] | 0%
7 | CC1(C)CC(=O)C=C(Nc2ccc(C(C)(C)C)cc2)C1 [Compound 143] | 20%

same assay, conditions: Mus musculus, sc, 0.5 h, 300 mg/kg, 30 min; read-out: scMet, animals protected/tested (converted)

Row | Compound | responders at 300 mg/kg
8 | COC(=O)C1C(=O)C=C(NCCc2ccccc2)CC1(C)C (stereo not drawn) [Compound 14] | 0%
9 | CC1(C)CC(=O)C=C(NCc2ccccc2)C1 [Compound 19] | 0%
10 | COC(=O)C1C(=O)C=C(Nc2cc(OC)ccc2OC)CC1C (stereo not drawn) [Compound 31, methyl 4-(2', 5'-dimethoxy)-phenylamino-6-methyl-2-oxo-cyclohex-3-en-1-oate] | 0%
11 | CC1(C)CC(=O)C=C(Nc2ccc(C(C)(C)C)cc2)C1 [Compound 143] | 20%

same assay, conditions: Mus musculus, sc, 4 h, 100 mg/kg, 4 h; read-out: scMet, animals protected/tested (converted)

Row | Compound | responders at 100 mg/kg
12 | COC(=O)C1C(=O)C=C(NCCc2ccccc2)CC1(C)C (stereo not drawn) [Compound 14] | 0%
13 | CC1(C)CC(=O)C=C(NCc2ccccc2)C1 [Compound 19] | 0%
14 | CCc1ccc(NC2=CC(=O)C(C(=O)OC)C(C)C2)cc1 (stereo not drawn) [Compound 26] | 0%
15 | COC(=O)C1C(=O)C=C(Nc2ccc([N+](=O)[O-])cc2)CC1C (stereo not drawn) [Compound 29] | 0%
16 | COC(=O)C1C(=O)C=C(Nc2cc(OC)ccc2OC)CC1C (stereo not drawn) [Compound 31, methyl 4-(2', 5'-dimethoxy)-phenylamino-6-methyl-2-oxo-cyclohex-3-en-1-oate] | 0%
17 | CC1(C)CC(=O)C=C(Nc2ccc(C(C)(C)C)cc2)C1 [Compound 143] | 0%

same assay, conditions: Mus musculus, sc, 4 h, 300 mg/kg, 4 h; read-out: scMet, animals protected/tested (converted)

Row | Compound | responders at 300 mg/kg
18 | COC(=O)C1C(=O)C=C(NCCc2ccccc2)CC1(C)C (stereo not drawn) [Compound 14] | 0%
19 | CC1(C)CC(=O)C=C(NCc2ccccc2)C1 [Compound 19] | 0%
20 | COC(=O)C1C(=O)C=C(Nc2cc(OC)ccc2OC)CC1C (stereo not drawn) [Compound 31, methyl 4-(2', 5'-dimethoxy)-phenylamino-6-methyl-2-oxo-cyclohex-3-en-1-oate] | 0%
21 | CC1(C)CC(=O)C=C(Nc2ccc(C(C)(C)C)cc2)C1 [Compound 143] | 0%

system: seizures; test: Anticonvulsant evaluation (ASP phase I / overall); format: in vivo, mice; details: 27 vs 16, 28 vs 17, 29 vs 20
Procedure: The first phase of the ADD Program involved performing tests on male Carworth Farms #1 mice. […] Three tests were performed:
(§1) Maximal electroshock seizures are elicited with a 60-cycle alternating current of 50 mA intensity (5-7 times that necessary to elicit minimal electroshock seizures) delivered via corneal electrodes for 0.2 seconds. A drop of 0.9% saline is instilled in the eye prior to application of the electrodes in order to […].
The animal is observed for 30 minutes.

Row | Compound | activity compared with benzylamine counterpart
22 | COC(=O)C1C(=O)C=C(Nc2ccc([N+](=O)[O-])cc2)CC1C (stereo not drawn) [Compound 29] | activity is enhanced in all cases

same assay, conditions: Mus musculus, ip; Phase I; read-out: ASP Classification

Row | Compound | minimal effective dose
23 | COC(=O)C1C(=O)C=C(NCCc2ccccc2)CC1(C)C (stereo not drawn) [Compound 14] | < 100 mg/kg
24 | CC1(C)CC(=O)C=C(NCc2ccccc2)C1 [Compound 19] | < 100 mg/kg
25 | CCc1ccc(NC2=CC(=O)C(C(=O)OC)C(C)C2)cc1 (stereo not drawn) [Compound 26] | < 100 mg/kg
26 | COC(=O)C1C(=O)C=C(Nc2ccc([N+](=O)[O-])cc2)CC1C (stereo not drawn) [Compound 29] | < 100 mg/kg
27 | COC(=O)C1C(=O)C=C(Nc2cc(OC)ccc2OC)CC1C (stereo not drawn) [Compound 31, methyl 4-(2', 5'-dimethoxy)-phenylamino-6-methyl-2-oxo-cyclohex-3-en-1-oate] | < 100 mg/kg
28 | CC1(C)CC(=O)C=C(Nc2ccc(C(C)(C)C)cc2)C1 [Compound 143] | < 100 mg/kg

same assay, conditions: mouse, in vivo

Row | Compound | anticonvulsant activity
29 | CC1(C)CC(=O)C=C(NCc2ccccc2)C1 [Compound 19] | potent anticonvulsants
30 | CCc1ccc(NC2=CC(=O)C(C(=O)OC)C(C)C2)cc1 (stereo not drawn) [Compound 26] | anticonvulsant activity was observed
31 | COC(=O)C1C(=O)C=C(Nc2cc(OC)ccc2OC)CC1C (stereo not drawn) [Compound 31, methyl 4-(2', 5'-dimethoxy)-phenylamino-6-methyl-2-oxo-cyclohex-3-en-1-oate] | anticonvulsant activity was observed

system: Maximal electroshock seizures; test: MES maximal electroshock seizure test, mice ip; format: in vivo; details: Mus musculus, ip, 0.5 h, 100 mg/kg, 30 min; read-out: MES, animals protected/tested (converted)
Procedure: Three tests were performed:
1. MES--Electroshock Seizure Test
as §1

Row | Compound | responders at 100 mg/kg
32 | COC(=O)C1C(=O)C=C(NCCc2ccccc2)CC1(C)C (stereo not drawn) [Compound 14] | 33.3%
33 | CC1(C)CC(=O)C=C(NCc2ccccc2)C1 [Compound 19] | 33.3%
34 | CCc1ccc(NC2=CC(=O)C(C(=O)OC)C(C)C2)cc1 (stereo not drawn) [Compound 26] | 66.7%
35 | COC(=O)C1C(=O)C=C(Nc2ccc([N+](=O)[O-])cc2)CC1C (stereo not drawn) [Compound 29] | 0%
36 | COC(=O)C1C(=O)C=C(Nc2cc(OC)ccc2OC)CC1C (stereo not drawn) [Compound 31, methyl 4-(2', 5'-dimethoxy)-phenylamino-6-methyl-2-oxo-cyclohex-3-en-1-oate] | 33.3%
37 | CC1(C)CC(=O)C=C(Nc2ccc(C(C)(C)C)cc2)C1 [Compound 143] | 0%

same assay, conditions: Mus musculus, ip, 0.5 h, 300 mg/kg, 30 min; read-out: MES, animals protected/tested

Row | Compound | responders at 300 mg/kg
38 | COC(=O)C1C(=O)C=C(NCCc2ccccc2)CC1(C)C (stereo not drawn) [Compound 14] | 100%
39 | CC1(C)CC(=O)C=C(NCc2ccccc2)C1 [Compound 19] | 100%
40 | COC(=O)C1C(=O)C=C(Nc2cc(OC)ccc2OC)CC1C (stereo not drawn) [Compound 31, methyl 4-(2', 5'-dimethoxy)-phenylamino-6-methyl-2-oxo-cyclohex-3-en-1-oate] | 100%
41 | CC1(C)CC(=O)C=C(Nc2ccc(C(C)(C)C)cc2)C1 [Compound 143] | 0%

same assay, conditions: Mus musculus, ip, 4 h, 100 mg/kg, 4 h; read-out: MES, animals protected/tested (converted)

Row | Compound | responders at 100 mg/kg
42 | COC(=O)C1C(=O)C=C(NCCc2ccccc2)CC1(C)C (stereo not drawn) [Compound 14] | 0%
43 | CC1(C)CC(=O)C=C(NCc2ccccc2)C1 [Compound 19] | 0%
44 | CCc1ccc(NC2=CC(=O)C(C(=O)OC)C(C)C2)cc1 (stereo not drawn) [Compound 26] | 0%
45 | COC(=O)C1C(=O)C=C(Nc2ccc([N+](=O)[O-])cc2)CC1C (stereo not drawn) [Compound 29] | 0%
46 | COC(=O)C1C(=O)C=C(Nc2cc(OC)ccc2OC)CC1C (stereo not drawn) [Compound 31, methyl 4-(2', 5'-dimethoxy)-phenylamino-6-methyl-2-oxo-cyclohex-3-en-1-oate] | 0%
47 | CC1(C)CC(=O)C=C(Nc2ccc(C(C)(C)C)cc2)C1 [Compound 143] | 0%

same assay, conditions: Mus musculus, ip, 4 h, 300 mg/kg, 4 h; read-out: MES, animals protected/tested

Row | Compound | responders at 300 mg/kg
48 | COC(=O)C1C(=O)C=C(NCCc2ccccc2)CC1(C)C (stereo not drawn) [Compound 14] | 0%
49 | CC1(C)CC(=O)C=C(NCc2ccccc2)C1 [Compound 19] | 100%
50 | COC(=O)C1C(=O)C=C(Nc2cc(OC)ccc2OC)CC1C (stereo not drawn) [Compound 31, methyl 4-(2', 5'-dimethoxy)-phenylamino-6-methyl-2-oxo-cyclohex-3-en-1-oate] | 0%
51 | CC1(C)CC(=O)C=C(Nc2ccc(C(C)(C)C)cc2)C1 [Compound 143] | 0%
